Data on 34 compounds can be found in patent US20250268854A1, “2-AMINO-5,5-DIMETHYLHEXANOIC ACID DERIVATIVES AS SORTILIN MODULATORS FOR USE IN THE TREATMENT OF DISEASE OF THE CENTRAL NERVOUS SYSTEM” (c/o Vesper Bio ApS, priority 2021, published 2025).

The target in one experiment is human Sortilin (Homo sapiens (Human), UniProt Q99523). In words: Creoptix (GCI) binding kinetics, human Sortilin. The following applies: screened at 1 μM. On the procedure:
A protein, bound to a surface, is bathed in a solution containing potential ligands giving rise to binding kinetics to generate Kon and Koff rates, as well as a Kd.
All buffers described were filtered using a 0.2 μm filter (Product number: 10300461, Nalgene) and degassed for 15 minutes prior to use.
A flow cell temperature of 25 degrees Celsius was used throughout the experiment.
A 4PCH chip was conditioned across all flow cells using 0.2× concentration running buffer (running buffer composition: 1×HBS-N, pH 7.4, 3.4 mM EDTA, 1% DMSO) using pre-set conditioning wizard (WAVE control software) injecting: 0.1 M borate, 1 M NaCl (pH 9) followed by three start-up injections of 0.2× running buffer.
A buffer exchange was performed and 1× running buffer (1×HBS-N, pH 7.4, 3.4 mM EDTA, 1% DMSO) used during the immobilisation procedure:
An initial injection of EDC/NHS (mixed in 1:1 ratio) was performed across all 4-flow cells to activate the surface for amine coupling of ligands.
Recombinant Sortilin aliquots were thawed quickly by hand and centrifuged at 13,300 rpm for 10 minutes. A 10 μg/ml protein solution was then made in pH 5.0 acetate and injected once for 20 minutes over flow-cells 2, 3 and 4 for human, human (flow cells 2 & 3), and mouse Sortilin respectively followed by a 60 second dissociation period.
A final 7-minute passivation injection of 50 mM tris was used across all flow cells.
A flow rate of 10 μl/min was used for all conditioning and immobilisation cycles.
Compounds were screened at 1 μM using the in-built ‘intermediate binders’ settings: 100 ul/min, 45 s baseline, 25 s association, 300 s dissociation, with blanks every 5th sample and a DMSO correction (1.5% DMSO at the start and end of the experiment as well as every 20 cycles. An acquisition rate of 10 Hz was used throughout the experiment.
Compounds were screened at a final assay concentration of 1 μM and a final DMSO concentration was 1%. To achieve this, compounds were diluted in DMSO from 10 mM stocks to 100 μM (100×final assay concentration) then diluted 1:100 in running buffer which contained no DMSO to establish a final assay concentration of compound of 1 μM and a final DMSO concentration of 1% [DMSO].
Compounds and DMSO were mixed by plate shaking at 1000 rpm for 60 seconds using a Bioshake instrument.
A flow rate of 100 μl/min was used throughout the experiment.
Data was evaluated using the RAPID kinetic analysis tool in the GCI WAVE_control software with data fitted using a standard 1:1 kinetic BioModel.

Another experiment has as its target h-Sortilin (Homo sapiens (Human), UniProt Q99523). In words: Neurotensin (NTS) scintillation proximity assay (SPA): displacement of [3H]-neurotensin binding. The following applies: 150 nM 6his-Sortilin, 5 nM [3H]-Neurotensin, average of at least 2 determinations. How it is done: The exemplified compounds of the invention were tested in a Neurotensin (NTS) scintillation proximity assay (SPA). NTS, which is a 13 amino acid neuropeptide, is a sortilin ligand. The IC50 is a measure of the amount of the compound required to inhibit the binding of NTS to sortilin by 50%. […] Compound affinity was determined by measuring the displacement of [^3H]-neurotensin binding to h-Sortilin in SPA format. […] IC50 values were calculated by nonlinear regression using the sigmoid concentration-response (variable slope) using CDD Vault software. All values reported are average of at least 2 determinations.
For orientation: Scintillation proximity formats need no separation of bound from free tracer.

Broadly, the Kd is the concentration at which binding is half-saturated. One may read the IC50 as the concentration at which inhibition is half-maximal. A high value points to weaker potency.

Where a name gives a salt, the structure may show the parent alone.

Sequence of h-Sortilin (Q99523 78-831): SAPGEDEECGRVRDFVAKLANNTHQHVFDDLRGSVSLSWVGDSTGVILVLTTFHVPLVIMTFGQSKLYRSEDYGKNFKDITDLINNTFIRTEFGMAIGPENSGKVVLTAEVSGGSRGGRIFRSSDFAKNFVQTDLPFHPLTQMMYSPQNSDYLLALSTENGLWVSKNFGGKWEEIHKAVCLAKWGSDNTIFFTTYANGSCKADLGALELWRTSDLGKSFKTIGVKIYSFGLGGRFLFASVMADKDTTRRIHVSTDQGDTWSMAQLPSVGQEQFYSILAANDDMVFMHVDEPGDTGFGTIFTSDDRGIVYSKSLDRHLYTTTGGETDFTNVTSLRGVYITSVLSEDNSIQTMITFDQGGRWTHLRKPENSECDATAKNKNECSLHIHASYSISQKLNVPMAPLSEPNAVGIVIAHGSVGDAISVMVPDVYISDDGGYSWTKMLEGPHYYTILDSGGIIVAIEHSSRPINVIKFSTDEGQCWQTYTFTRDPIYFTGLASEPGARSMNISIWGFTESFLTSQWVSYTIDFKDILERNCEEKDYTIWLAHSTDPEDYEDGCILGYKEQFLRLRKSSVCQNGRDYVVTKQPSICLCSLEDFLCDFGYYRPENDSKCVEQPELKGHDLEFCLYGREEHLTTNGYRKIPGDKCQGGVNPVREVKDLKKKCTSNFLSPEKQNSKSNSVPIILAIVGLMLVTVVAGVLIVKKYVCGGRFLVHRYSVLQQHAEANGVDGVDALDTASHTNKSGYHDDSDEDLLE
Sequence of human Sortilin (Q99523 78-755): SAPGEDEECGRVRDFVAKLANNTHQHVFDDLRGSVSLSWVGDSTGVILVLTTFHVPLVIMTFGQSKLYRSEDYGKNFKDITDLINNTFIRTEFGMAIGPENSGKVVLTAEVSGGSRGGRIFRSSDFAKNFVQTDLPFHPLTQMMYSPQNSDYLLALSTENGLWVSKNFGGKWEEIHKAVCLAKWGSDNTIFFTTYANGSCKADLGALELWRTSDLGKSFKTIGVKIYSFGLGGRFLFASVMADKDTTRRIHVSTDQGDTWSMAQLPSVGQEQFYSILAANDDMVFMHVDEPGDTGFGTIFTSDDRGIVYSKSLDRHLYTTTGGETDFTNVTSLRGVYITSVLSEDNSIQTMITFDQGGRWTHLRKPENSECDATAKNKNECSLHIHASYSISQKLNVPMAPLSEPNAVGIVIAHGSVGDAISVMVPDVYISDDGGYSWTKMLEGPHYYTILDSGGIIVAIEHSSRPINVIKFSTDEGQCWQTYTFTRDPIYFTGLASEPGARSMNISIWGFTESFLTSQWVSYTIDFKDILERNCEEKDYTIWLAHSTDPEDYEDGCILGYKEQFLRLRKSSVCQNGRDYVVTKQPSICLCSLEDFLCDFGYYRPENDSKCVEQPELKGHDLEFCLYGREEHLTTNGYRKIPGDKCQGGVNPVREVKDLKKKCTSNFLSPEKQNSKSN

With `CC(C)(C)CC[C@H](NCc1ccccc1)C(=O)O` [Example 3, (S)-2-(benzylamino)-5,5-dimethylhexanoic acid hydrochloride], the Kd on human Sortilin (HCl salt) stood at 902 nM. Also, at h-Sortilin, the IC50 is 766 nM.

As to `COc1ccccc1CN[C@@H](CCC(C)(C)C)C(=O)O` [Example 9, (S)-2-((2-methoxybenzyl)amino)-5,5-dimethylhexanoic acid hydrochloride], the Kd on human Sortilin (HCl salt) came to 8450 nM. For the same compound, the IC50 on h-Sortilin turned out to be 630 nM.

On human Sortilin (Free acid), `COc1cccc([C@H](N[C@@H](CCC(C)(C)C)C(=O)O)C(F)F)c1` [Example 21, (2S)-2-{[(1S)-2,2-difluoro-1-(3-methoxyphenyl)ethyl]amino}-5,5-dimethylhexanoic acid] registered a Kd of 284 nM. The same compound had an IC50 on h-Sortilin of 270 nM.

For `COc1cccc([C@@H](N[C@@H](CCC(C)(C)C)C(=O)O)C(F)F)c1` [Example 22, (2S)-2-{[(1R)-2,2-difluoro-1-(3-methoxyphenyl)ethyl]amino}-5,5-dimethylhexanoic acid], binding on human Sortilin (Free acid) was characterised by a dissociation constant (Kd) of 5960 nM. The half-maximal inhibitory concentration (IC50) on h-Sortilin amounted to 260 nM.

Compound `COc1cccc([C@@H](N[C@@H](CCC(C)(C)C)C(=O)O)C(F)(F)F)c1` [Example 23, (2S)-5,5-dimethyl-2-{[(1R)-2,2,2-trifluoro-1-(3-methoxyphenyl)ethyl]amino}hexanoic acid] registered a Kd at human Sortilin (Free acid) of 4020 nM. In addition, the IC50 at h-Sortilin was found to be 390 nM.

As for `COc1cccc([C@H](N[C@@H](CCC(C)(C)C)C(=O)O)C(F)(F)F)c1` [Example 24, (2S)-5,5-dimethyl-2-{[(1S)-2,2,2-trifluoro-1-(3-methoxyphenyl)ethyl]amino}hexanoic acid], binding on human Sortilin (Free acid) was characterised by a dissociation constant (Kd) of 230 nM.

The compound `COc1ccc(OC)c(CN[C@@H](CCC(C)(C)C)C(=O)O)c1` [Example 28, (2S)-2-{[(2,5-dimethoxyphenyl)methyl]amino}-5,5-dimethylhexanoic acid] yielded a Kd on human Sortilin (Free acid) of 1020 nM. The same compound displayed an IC50 at h-Sortilin of 2220 nM.

On to `COc1cc(F)cc(CN[C@@H](CCC(C)(C)C)C(=O)O)c1` [Example 29, (2S)-2-{[(3-fluoro-5-methoxyphenyl)methyl]amino}-5,5-dimethylhexanoic acid], for which the Kd on human Sortilin (Free acid) worked out at 571 nM. At h-Sortilin, this compound had an IC50 of 550 nM.

In the case of `COc1cc(Cl)cc(CN[C@@H](CCC(C)(C)C)C(=O)O)c1` [Example 30, (2S)-2-{[(3-chloro-5-methoxyphenyl)methyl]amino}-5,5-dimethylhexanoic acid], the Kd on human Sortilin (Free acid) came to 450 nM. Further, the 50% inhibitory concentration (IC50) at h-Sortilin was found to be 580 nM.

Compound `COc1cc(Br)cc(CN[C@@H](CCC(C)(C)C)C(=O)O)c1` [Example 31, (2S)-2-{[(3-bromo-5-methoxyphenyl)methyl]amino}-5,5-dimethylhexanoic acid] returned a Kd on human Sortilin (Free acid) of 432 nM. In addition, the IC50 at h-Sortilin turned out to be 520 nM.

In turn, `COc1cc(CN[C@@H](CCC(C)(C)C)C(=O)O)ccc1C` [Example 33, (2S)-2-{[(3-methoxy-4-methylphenyl)methyl]amino}-5,5-dimethylhexanoic acid] came in with a Kd at human Sortilin (Free acid) of 242 nM. This compound also came in with an IC50 on h-Sortilin of 400 nM.

The compound `COc1ccc(CN[C@@H](CCC(C)(C)C)C(=O)O)cc1OC` [Example 38, (2S)-2-{[(3,4-dimethoxyphenyl)methyl]amino}-5,5-dimethylhexanoic acid] gave a Kd at human Sortilin (Free acid) of 747 nM. Also, the 50% inhibitory concentration (IC50) at h-Sortilin came to 1360 nM.

Compound `CC(C)(C)CC[C@H](NCc1ccc2c(c1)CCCO2)C(=O)O` [Example 40, (2S)-2-{[(3,4-dihydro-2H-1-benzopyran-6-yl)methyl]amino}-5,5-dimethylhexanoic acid] came in with a Kd at human Sortilin (Free acid) of 101 nM. This compound also gave an IC50 on h-Sortilin of 470 nM.

With `Cc1cccc(CN[C@@H](CCC(C)(C)C)C(=O)O)c1C` [Example 83, (2S)-2-{[(2,3-dimethylphenyl)methyl]amino}-5,5-dimethylhexanoic acid], the IC50 at h-Sortilin came out at 700 nM.

On h-Sortilin, `COc1ccc2cc(CN[C@@H](CCC(C)(C)C)C(=O)O)ccc2c1` [Example 85] yielded an IC50 of 1050 nM.

On h-Sortilin, `COc1cncc(CN[C@@H](CCC(C)(C)C)C(=O)O)c1` [Example 86] returned an IC50 of 790 nM.

Consider `COc1cc(CN[C@@H](CCC(C)(C)C)C(=O)O)ccn1` [Example 87], for which the IC50 on h-Sortilin is 530 nM.

At h-Sortilin, `CC(C)(C)CC[C@H](NCc1ccnc(Cl)c1F)C(=O)O` [Example 89, (2S)-2-{[(2-chloro-3-fluoropyridin-4-yl)methyl]amino}-5,5-dimethylhexanoic acid] showed a half-maximal inhibitory concentration (IC50) of 790 nM.

On h-Sortilin, `COc1ccc(CN[C@@H](CCC(C)(C)C)C(=O)O)cc1O` [Example 91, (2S)-2-{[(3-hydroxy-4-methoxyphenyl)methyl]amino}-5,5-dimethylhexanoic acid] gave an IC50 of 390 nM.

Consider `Cc1cnccc1CN[C@@H](CCC(C)(C)C)C(=O)O` [Example 93], for which, on h-Sortilin, the IC50 worked out at 1630 nM.

At h-Sortilin, `Cc1cncc(CN[C@@H](CCC(C)(C)C)C(=O)O)c1` [Example 95] had an IC50 of 690 nM.

In the case of `Cc1nc2cc(CN[C@@H](CCC(C)(C)C)C(=O)O)ccc2s1` [Example 100, (2S)-5,5-dimethyl-2-{[(2-methyl-1,3-benzothiazol-5-yl)methyl]amino}hexanoic acid], the IC50 on h-Sortilin was 380 nM.

`Cn1ccc2cc(CN[C@@H](CCC(C)(C)C)C(=O)O)cnc21` [Example 106, (2S)-5,5-dimethyl-2-[({1-methyl-1H-pyrrolo[2,3-b]pyridin-5-yl}methyl)amino]hexanoic acid] displayed an IC50 on h-Sortilin of 590 nM.

Regarding `COc1ccc([C@H](C)N[C@@H](CCC(C)(C)C)C(=O)O)cc1OC` [Example 108, (S)-2-(((S)-1-(3,4-dimethoxyphenyl)ethyl)amino)-5,5-dimethylhexanoic acid], the IC50 at h-Sortilin was 370 nM.

With `Cn1cnc2cc(CN[C@@H](CCC(C)(C)C)C(=O)O)ccc21` [Example 110, (2S)-5,5-dimethyl-2-{[(1-methyl-1H-1,3-benzodiazol-5-yl)methyl]amino}hexanoic acid], on h-Sortilin, the IC50 was 460 nM.

At h-Sortilin, `CC(C)(C)CC[C@H](NCc1ccc2occc2c1)C(=O)O` [Example 117, (2S)-2-{[(1-benzofuran-5-yl)methyl]amino}-5,5-dimethylhexanoic acid] gave an IC50 of 430 nM.

With `Cc1cc(CN[C@@H](CCC(C)(C)C)C(=O)O)ccn1` [Example 132], on h-Sortilin, the IC50 came to 880 nM.

In the case of `COc1ccc(CN[C@@H](CCC(C)(C)C)C(=O)O)cc1` [Example 133, (2S)-2-{[(4-methoxyphenyl)methyl]amino}-5,5-dimethylhexanoic acid], the IC50 on h-Sortilin was found to be 820 nM.

The compound `CC(C)(C)CC[C@H](NCc1cccc2[nH]ncc12)C(=O)O` [Example 134, (2S)-2-{[(2H-indazol-4-yl)methyl]amino}-5,5-dimethylhexanoic acid] came in with an IC50 on h-Sortilin of 1320 nM.

On to `CCn1ccc2c(CN[C@@H](CCC(C)(C)C)C(=O)O)cccc21` [Example 135, (2S)-2-{[(1-ethyl-1H-indol-4-yl)methyl]amino}-5,5-dimethylhexanoic acid], for which, at h-Sortilin, the IC50 is 420 nM.

As to `Cn1cnc2c(CN[C@@H](CCC(C)(C)C)C(=O)O)cccc21` [Example 138, (S)-5,5-dimethyl-2-(((1-methyl-1H-benzo[d]imidazol-4-yl)methyl)amino)hexanoic acid, Mesylic acid], the IC50 at h-Sortilin is 740 nM.

`CC(=O)c1cccc(CN[C@@H](CCC(C)(C)C)C(=O)O)c1` [Example 139, (2S)-2-{[(3-acetylphenyl)methyl]amino}-5,5-dimethylhexanoic acid]: the half-maximal inhibitory concentration (IC50) on h-Sortilin stood at 570 nM.

As for `CC(N[C@@H](CCC(C)(C)C)C(=O)O)c1cncnc1` (stereo partly drawn) [Example 141, (2S)-5,5-dimethyl-2-((1-(pyrimidin-5-yl)ethyl)amino)hexanoic acid, HCl], the IC50 at h-Sortilin (HCl) is 640 nM.

For `CC(N[C@@H](CCC(C)(C)C)C(=O)O)c1cncnc1` (stereo partly drawn) [Example 143, (2S)-5,5-dimethyl-2-((1-(pyrimidin-5-yl)ethyl)amino)hexanoic acid, HCl], on h-Sortilin (HCl), the IC50 stood at 890 nM.
